The values below come from article PMC12526400, “Insight into Cytotoxic Potential of Erica spiculifolia Salisb (Balkan Heath)” (Plants, 2025).

Structures are written as SMILES. In brackets after ≈: the same amount, converted by molar mass. Several values for one entry are separate records, joined by “and”; a condition that tells them apart may be missing. Identical values can stand only once. Entries after “also recorded” stand apart in the source; their conditions may differ. Like-named read-outs stand apart in the source and are kept apart here.

Data set [1] concerns cancer versus normal cell models. Also noted: method as in PMID 36297448, doi:10.13005/bpj/3133, PMID 37108571. Particulars: depending on the cancer versus normal cell models applied; cited from earlier work.
For the next data set, the system named is HL-60 cells. The experiment in a line: MTT cytotoxicity, HL-60. The class given is cell-based, human. The text has this:
(§1) To evaluate the anticancer potential of the studied E. spiculifolia extract, we employed a diverse panel of human cancer cell lines alongside a non-malignant control. The hematological models included LAMA-84, a chronic myeloid leukemia line harboring the Philadelphia chromosome [t(9;22)], and HL-60, an acute promyelocytic leukemia line characterized by the t(15;17) translocation. These suspension cultures allowed us to assess the effects on leukemic cells with distinct genetic drivers. In parallel, we investigated the antitumor activity of the plant extract against reproductive system-associated carcinomas, including breast carcinoma cells (MCF-7 and MDA-MB-231) and a cervical cancer cell line (CASKI). MCF-7 cells are hormone-responsive and widely used to model estrogen receptor-positive disease, whereas MDA-MB-231 cells are triple-negative, highly aggressive, and resistant to conventional anti-hormonal therapy. To further broaden the spectrum, we included CASKI, a cervical carcinoma line associated with HPV16 infection, thereby extending the analysis to virally driven epithelial cancer. In addition, normal murine fibroblast cells (CCL-1) were used as a non-malignant comparator, enabling an assessment of selectivity between normal and malignant cells. The presence and degree of tumor selectivity was assessed by calculating the correspondent selectivity indices (SI, selectivity index), defined as the ratio between the half-inhibitory concentrations of the extract in healthy and malignant cells (Table 2).
(§2) The antiproliferative activity of the extract, gallic, oleanolic, and protocatechuic acids was screened against human malignant cell lines of hematological (LAMA-84, HL-60) and epithelial (MDA-MB-231, MCF-7, CASKI) origin, as well as normal murine fibroblast cells (CCL-1). All cell lines were purchased from the German Collection of Microorganisms and Cell Cultures (DSMZ GmbH, Braunschweig, Germany). Cell cultures were cultivated in a growth medium RPMI 1640 supplemented with 10% fetal bovine serum (FBS), 5% L-glutamine, and incubated under standard conditions of 37 °C and 5% humidified CO2 atmosphere.
(§3) The cytotoxic potential of the E. spiculifolia extract was studied using a validated method for assessing cell viability known as the Mosmann MTT test. The assay is colorimetric and measures the activity of mitochondrial enzymes, reducing the yellow dye MTT (3-(4,5-dimethylthiazol-2-yl)-2,5-diphenyltetrazolium bromide) to violet formazan crystals. According to protocol, exponential-phased cells were harvested and seeded (100 μL/well) in 96-well plates at the appropriate density. Following a 24 h incubation, cells were treated with serial dilutions of the extract in the concentration range 1000–31.3 μg/mL. Following a 72 h exposure, filter sterilized MTT substrate solution (5 mg/mL in PBS) was added to each well of the culture plate. A further 4h incubation allowed the reduction of the yellow MTT reagent into purple formazan crystals in metabolically active viable cells, which were dissolved in an isopropyl alcohol solution containing 5% formic acid prior to absorbance measurement at 550 nm. Untreated cells (100% cell viability) were used as negative control. Cisplatin was used as positive control.
(§4) Collected absorbance values were blanked against MTT and isopropanol solution and normalized to the mean value of untreated control (100% cell viability). The obtained data were fitted to “concentration-effect” curves and analyzed by means of non-linear regression in the GraphPad Prism 8.0 software. Statistical analyses were performed using one-way analysis of variance (ANOVA) to assess differences among experimental groups. Where significant differences were detected, post hoc comparisons were conducted using Tukey’s test.

For the next data set, the system named is CASKI cells. The experiment in a line: MTT cytotoxicity, CASKI. In kind it is cell-based, human.
Text: as §1, §2, §3, §4

A further data set deals with MDA-MB-231 cells. In words: MTT cytotoxicity, MDA-MB-231. The class given is cell-based, human.
Text: as §1, §2, §3, §4

In the next data set the test system is LAMA-84 cells. In words: MTT cytotoxicity, LAMA-84. In kind it is cell-based, human.
Text: as §1, §2, §3, §4

Data set [2] has as its system CCL-1 normal murine fibroblast cells. In words: MTT cytotoxicity, normal fibroblasts CCL-1. The class given is cell-based.
Text: as §1, §2
as §3, with “Following a 72 h exposure, filter sterilized MTT substrate solution (5 mg/mL in PBS) was added to each well of the culture plate.” left out, “Untreated cells (100% cell viability) were used as negative control. Cisplatin was used as positive control.” left out
Collected absorbance values were blanked against MTT and isopropanol solution and normalized to the mean value of untreated control (100% cell viability). The obtained data were fitted to “concentration-effect” curves and analyzed by means of non-linear regression in the GraphPad Prism 8.0 software. […] Where significant differences were detected, post hoc comparisons were conducted using Tukey’s test.

In a further data set the test system is MCF-7 cells. The experiment in a line: MTT cytotoxicity, MCF-7. In kind it is cell-based, human.
Text: as §1, §2, §3, §4

The subject of data set [3] is hepatocellular carcinoma HuH7 cells. Also noted: method as in PMID 20415421. Particulars: cited from earlier work.
The subject of another data set is HCT116. Also on record: method as in PMID 30928277. The settings on record: cited from earlier work.
A further data set concerns SW480. Also noted: method as in PMID 30928277. The settings on record: cited from earlier work.
Data set [4] concerns triple-negative MDA-MB-231 breast cancer cells. Also on record: method as in doi:10.3724/SP.J.1145.2010.00202. Particulars: cited from earlier work.
Setting [5] is: Homo sapiens, HL-60, MTT, 72 h exposure, promyelocytic leukemia, read-out: IC50 HL-60 (converted).
[6] abbreviates: Homo sapiens, Ca-Ski, MTT, 72 h exposure, cervical cancer, read-out: IC50 CASKI (converted).
Setting [7] is: Homo sapiens, MDA-MB-231, MTT, 72 h exposure, triple-negative breast carcinoma, read-out: IC50 MDA-MB-231 (converted).
The mark [8] stands for this setting: Homo sapiens, LAMA-84, MTT, 72 h exposure, bcr-abl+ chronic myeloid leukemia, read-out: IC50 LAMA-84 (converted).
Setting [9] is: Homo sapiens, LAMA-84, MTT, 72 h exposure, molar equivalent in brackets, read-out: IC50 LAMA-84 (converted).
Where [10] appears, read: Mus musculus, MTT, 72 h exposure, normal murine fibroblast cells, read-out: IC50 CCL-1 (converted).
The mark [11] stands for this setting: Homo sapiens, MCF7, MTT, 72 h exposure, hormone-responsive breast carcinoma, read-out: IC50 MCF-7 (converted).
The mark [12] stands for this setting: 72 h, concentrations up to 500 μg/mL.

Take `COc1cccc2c1C(=O)c1c(O)c3c(c(O)c1C2=O)C[C@@](O)(C(=O)CO)C[C@@H]3O[C@H]1C[C@H](N)[C@H](O)[C@H](C)O1` [doxorubicin]: in data set [1], the “SI values typically reported” value was 1–40.
Turning to `O=C(O)c1ccc(O)c(O)c1` [protocatechuic acid], the IC50 in the data set with HL-60 cells (Homo sapiens, HL-60, 72 h, read-out: IC50 HL-60) was greater than 500 µg/mL; in the data set on CASKI cells (Homo sapiens, Ca-Ski, 72 h, read-out: IC50 CASKI), greater than 500 µg/mL; in the data set with MDA-MB-231 cells (Homo sapiens, MDA-MB-231, 72 h, read-out: IC50 MDA-MB-231), 311 µg/mL; with LAMA-84 cells (Homo sapiens, LAMA-84, 72 h, read-out: IC50 LAMA-84), > 500 µg/mL and > 3.24 mM; in data set [2] (Mus musculus, Fibroblast, 72 h, read-out: IC50 CCL-1), greater than 500 µg/mL; in the data set with MCF-7 cells (Homo sapiens, MCF7, 72 h, read-out: IC50 MCF-7) it was greater than 500 µg/mL.
`O=C(O)c1cc(O)c(O)c(O)c1` [gallic acid]: the IC50 was greater than 500 µg/mL with HL-60 cells (setting [5]); greater than 500 µg/mL with CASKI cells (setting [6]); greater than 500 µg/mL in the data set with MDA-MB-231 cells (setting [7]); 6.2 µg/mL with LAMA-84 cells (setting [8]); 36.4 µM in the data set with LAMA-84 cells (setting [9]); greater than 500 µg/mL in data set [2] (setting [10]). Besides, the IC50 with MCF-7 cells (setting [11]) was greater than 500 µg/mL. Also, the “cytotoxicity against CASKI (in words)” value in the data set on CASKI cells (72 h exposure) was “inactive”.
Consider `C[C@H]1[C@H](C)CC[C@]2(C(=O)O)CC[C@]3(C)C(=CC[C@@H]4[C@@]5(C)CC[C@H](O)C(C)(C)[C@@H]5CC[C@]43C)[C@H]12` [ursolic acid], for which the IC50 in data set [3] is 75 µM; in the data set with HCT116 it was 13 µM; in the data set with SW480, 10.2 µM.
On to `CC1(C)CC[C@]2(C(=O)O)CC[C@]3(C)C(=CC[C@@H]4[C@@]5(C)CC[C@H](O)C(C)(C)[C@@H]5CC[C@]43C)[C@@H]2C1` [oleanolic acid], for which the IC50 in the data set with HL-60 cells (setting [5]) was greater than 500 µg/mL; with CASKI cells (setting [6]) it was greater than 500 µg/mL; in the data set on MDA-MB-231 cells (setting [7]), greater than 500 µg/mL; in the data set on LAMA-84 cells (setting [8]), 1.7 µg/mL; in the data set with LAMA-84 cells (setting [9]), 3.7 µM; in [2] (setting [10]), greater than 500 µg/mL. The IC50 in the data set on MCF-7 cells (setting [11]) is greater than 500 µg/mL; in data set [3], 100 µM. Also, the “cytotoxicity against CASKI (in words)” value in the data set with CASKI cells (72 h exposure) was “inactive”. For the same molecule, the “cytotoxicity against MDA-MB-231 (in words)” value with MDA-MB-231 cells (setting [12]) is “inactive; also recorded: did not exert cytotoxic effects”. Also, the “IC50 MDA-MB-231 (previous studies)” value in data set [4] was 38.8 µg/mL (≈ 85 µM). In the data set on MCF-7 cells (setting [12]), the “cytotoxicity against MCF-7 (in words)” value is “inactive; also recorded: did not exert cytotoxic effects”.
Consider `N.N.[Cl][Pt][Cl]` [cisplatin, reference compound], for which the IC50 in the data set with HL-60 cells (MTT, 72 h exposure, molar equivalent in brackets, read-out: IC50 HL-60 (converted)) was 8.9 µM; in the data set with CASKI cells (MTT, 72 h exposure, molar equivalent in brackets, read-out: IC50 CASKI (converted)), 48.6 µM; in the data set with MDA-MB-231 cells (MTT, 72 h exposure, molar equivalent in brackets, read-out: IC50 MDA-MB-231 (converted)) it was 57.1 µM; in the data set on LAMA-84 cells (MTT, 72 h exposure, molar equivalent in brackets, read-out: IC50 LAMA-84 (converted)), 37.8 µM; in data set [2] (MTT, 72 h exposure, molar equivalent in brackets, read-out: IC50 CCL-1 (converted)), 18.7 µM; in the data set on MCF-7 cells (MTT, 72 h exposure, molar equivalent in brackets, read-out: IC50 MCF-7 (converted)), 51.6 µM. Moreover, the “IC50 HL-60” value with HL-60 cells (MTT, 72 h exposure, promyelocytic leukemia) amounted to 2.7 ± 0.4 µg/mL. For the same molecule, the “SI HL-60” value with HL-60 cells (selectivity index = IC50 in CCL-1 / IC50 in HL-60) was determined as 2.1. Also, in the data set on CASKI cells (MTT, 72 h exposure, cervical cancer), the “IC50 CASKI” value was determined as 14.6 ± 1.9 µg/mL. In addition, the “SI CASKI” value in the data set with CASKI cells (selectivity index = IC50 in CCL-1 / IC50 in CASKI) is on record as less than 1. The “IC50 MDA-MB-231” value with MDA-MB-231 cells (MTT, 72 h exposure, triple-negative breast carcinoma) is 17.2 ± 1.3 µg/mL. Also, in the data set on MDA-MB-231 cells (selectivity index = IC50 in CCL-1 / IC50 in MDA-MB-231), the “SI MDA-MB-231” value is on record as less than 1. The “IC50 LAMA-84” value in the data set with LAMA-84 cells (MTT, 72 h exposure, bcr-abl+ chronic myeloid leukemia) is 11.4 ± 0.99 µg/mL. The “SI LAMA-84” value with LAMA-84 cells (selectivity index = IC50 in CCL-1 / IC50 in LAMA-84) is less than 1. For the same molecule, the “IC50 CCL-1” value in data set [2] (MTT, 72 h exposure, normal murine fibroblast cells) was 5.6 ± 0.7 µg/mL. Moreover, the “SI values typically reported” value in data set [1] is 1–40. Further, the “IC50 MCF-7” value in the data set on MCF-7 cells (MTT, 72 h exposure, hormone-responsive breast carcinoma) is 15.5 ± 1.7 µg/mL. For the same molecule, the “SI MCF-7” value in the data set with MCF-7 cells (selectivity index = IC50 in CCL-1 / IC50 in MCF-7) is reported as less than 1.
